Results on 1 compound are retold here after patent US9493455B2, “Azaindole derivatives as inhibitors of protein kinases” (ORIBASE PHARMA, priority 2012, dated 2016).

Common to all, as to type: in vivo, mice
The subject of assay [1] is Ba/F3 T315I cells. The experiment in a line: Xenograft mouse model, imatinib-resistant leukemia (CML). The method, then:
(§1) Several xenograft mouse models were prepared: • 1) imatinib-resistant leukemia by subcutaneously implanting Ba/F3 T315I cells (1×10^8 cell/mL in sterile PBS), into the right flank of athymic nude male mice (HSD, 6-7 weeks old). When the tumor volume reached approximately 50 mm^3, mice were assigned randomly to either vehicle alone or OR0512 treatment groups (five mice per group). Mice were treated with either vehicle (DMSO) or OR0512 (40 mg/kg q.d.; per os for 11 consecutive days). • 2) human pancreatic adenocarcinoma model by subcutaneously implanting BxPC-3 cells (1×10^7 cell/mL in sterile PBS), into the right flank of athymic nude male mice (HSD, 6-7 weeks old). […]
(§2) Tumor volumes in mm^3 were determined three times a week with a digital caliper and calculated using the following formula: Tumor Volume (mm^3)=length (mm)×width (mm)×width (mm)×½. Body weight was measured three times a week, and mice were observed daily for monitoring signs of stress to detect possible toxicities. […] Data were analyzed with Prism 5.0b (GraphPad Software) by one-way ANOVA with Bonferroni post hoc. Tumor Growth Inibition (TGI) is calculated as the percent decrease of tumor growth at the end of the study in the OR0512 treatment group in comparison to the vehicle alone treatment group.

Assay [2] has as its system H1975 cells. The experiment in a line: Xenograft mouse model, human NSCLC with EGFR mutations. How it is done: as §1, §2
(In general: In xenograft studies the graft and the host belong to different species.)

Assay [3] relates to HepG2 cells. Put plainly: Xenograft mouse model, human hepatocellular carcinoma. How it is done:
as §1, §2

For assay [4], the system named is BxPC-3 cells. The experiment in a line: Xenograft mouse model, human pancreatic adenocarcinoma. How it is done:
as §1, §2

`COC(=O)c1cc2cc(NCc3cc(NC(=O)c4ccc(CN5CCN(C)CC5)c(C(F)(F)F)c4)ccc3C)cnc2[nH]1` [OR0512]: the “Tumor Growth Inhibition - TGI” value in assay [1] (Ba/F3 T315I xenograft, mice, 40 mg/kg q.d. per os, 11 days, versus vehicle) is recorded as 37%; in assay [2] (H1975 xenograft, mice, 20 mg/kg q.d. per os, 22 days, versus vehicle, **P < 0.05), 73%**; in assay [3] (HepG2 xenograft, mice, 20 mg/kg q.d. per os, 15 days, versus vehicle, **P < 0.05) it was 69%**; in assay [4] (BxPC-3 xenograft, mice, 20 mg/kg q.d. per os, 32 days, versus vehicle, **P < 0.05), 85%**. The “decrease of tumor growth (in words)” value in assay [1] (xenografted mice, imatinib-resistant CML model expressing Bcr-Abl T315I) is listed as “slight decrease of tumor growth”; in assay [2] (xenografted mice, human NSCLC (mutated form of EGFR) model), “significantly induced a decrease of tumor growth”; in assay [3] (xenografted mice, human hepatocellular carcinoma model) it was “significantly induced a decrease of tumor growth”; in assay [4] (xenografted mice, human pancreatic adenocarcinoma model), “significantly induced a decrease of tumor growth”.
